Laboratory results: PubChem BioAssay (NCI)
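Dose response: 5 concentrations. Exposure: 48 h. Format: 96-well plates. Endpoint: linear interpolation; highest concentration if not reached. TGI: total growth inhibition.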 Where a SMILES comes first, the peptide text is derived from it. [ ]: non-standard residue; d: D form. The star is where a group is joined. Phe(4-NO2) = N[CH](Cc1ccc([N+](=O)[O-])cc1)C(=O)O; Cbz = O=C(OCc1ccccc1)*

Tests used:
Test in all cases: growth of human tumour cells (NCI), 48 h
[1] = tested on: A549 NSCLC
[2] = tested on: DU-145 prostate
[3] = tested on: HCC-2998 colon
[4] = tested on: HCT-15 colon
[5] = tested on: K-562 leukemia
[6] = tested on: M14 melanoma
[7] = tested on: MCF7 breast
[8] = tested on: MDA-N
[9] = tested on: NCI/ADR-RES ovarian
[10] = tested on: PC-3 prostate
[11] = tested on: SF-295 CNS
[12] = tested on: SK-MEL-5 melanoma
[13] = tested on: SN12C renal
[14] = tested on: T-47D breast
[15] = tested on: HOP-62 NSCLC

Measured: TGI

N#Cc1ccccc1NC(=O)C(O)C(O)C(O)C(O)C=O (stereo not drawn)
not listed: [15]
> 100 µM: all other assays above

CC1=NN(c2nc(N)nc(CCl)n2)C(C)(C)C1
> 56 µM: [12]
55.9 µM: [4]
> 75.4 µM: [6]
> 69.5 µM: [5]
66.1 µM: [3]
> 74.5 µM: [11]
> 68.7 µM: [13]
19.1 µM: [15]
35 µM: [9]
> 100 µM: all other assays above

COc1ccc(-n2c(C)nc3ccc(NC4OCC(OC(C)=O)C(OC(C)=O)C4OC(C)=O)cc3c2=O)cc1 (stereo not drawn)
not listed: [1] | [6]
> 100 µM: all other assays above

CC(Oc1ccc(Cl)cc1Cl)C(=O)NN1C(=O)CC(=O)NC1=S (stereo not drawn)
> 100 µM: all assays above

c1ccc(CSCCC(SCc2ccccc2)SCc2ccccc2)cc1
> 10 µM: all assays above

Clc1nc(NC23CC4CC(CC(C4)C2)C3)nc(NC23CC4CC(CC(C4)C2)C3)n1
> 40.6 µM: [10]
> 89 µM: [14]
47 µM: [5]
> 100 µM: all other assays above

COc1ccc(/C=C2\CC3C4CC=C5C[C@@H](N6CCCC6)CC[C@]5(C)C4CC[C@]3(C)[C@H]2O)cc1OC (stereo partly drawn)
14.9 µM: [8]
12.3 µM: [15]
11.7 µM: [3]
12.6 µM: [10]
26.6 µM: [14]
22.4 µM: [2]
19.2 µM: [9]
37.5 µM: [5]
14.8 µM: [7]
17.6 µM: [1]
11.5 µM: [11]
16.8 µM: [6]
18.3 µM: [13]
14.3 µM: [12]
14.2 µM: [4]

COc1ccc(-c2c(C#N)c(N)nc(Sc3ccccc3N)c2C#N)cc1
32.6 µM: [15]
98.4 µM: [9]
> 65.7 µM: [7]
17.5 µM: [14]
56.6 µM: [11]
> 55.6 µM: [10]
> 100 µM: all other assays above

COC(=O)c1c(C)c2c(c(C)c1O)OC(=O)c1c(C)cc(O)c(C=O)c1O2
> 100 µM: all assays above

COc1ccc2c(c1)C1Oc3ccccc3CC1CO2 (stereo not drawn)
42.7 µM: [3]
> 100 µM: all other assays above

NC(N)=N/N=C/c1c(Cl)nc2n1CCS2
not listed: [12]
> 100 µM: all other assays above

O=C(Cn1c(C(=O)/C=C/c2ccc(Cl)c(Cl)c2)nc2ccccc21)c1ccccc1
47.2 µM: [8]
82.2 µM: [7]
72.2 µM: [6]
34.4 µM: [13]
35.8 µM: [3]
91.6 µM: [4]
73 µM: [9]
59.8 µM: [1]
35.4 µM: [12]
not listed: [11]
> 100 µM: all other assays above

CCOC(=O)CCC(NC(=O)OCc1ccccc1)C(=O)NC(CCC(=O)OCC)C(=O)NC(CCC(=O)OCC)C(=O)NC(CCC(=O)OCC)C(=O)NC(CCC(=O)OCC)C(=O)NC(Cc1ccc([N+](=O)[O-])cc1)C(=O)NC(CCC(=O)OCC)C(=O)NC(CCC(=O)OCC)C(=O)NC(CCC(=O)OCC)C(=O)NC(CCC(=O)OCC)C(=O)NC(CCC(=O)OCC)C(=O)OCC (stereo not drawn) (Cbz-E(OEt)E(OEt)E(OEt)E(OEt)E(OEt)[Phe(4-NO2)]E(OEt)E(OEt)E(OEt)E(OEt)E(OEt)-OEt; configuration not given here)
not listed: [11]
> 50 µM: all other assays above

NC(=S)N/N=C1\CCc2ccccc2C1
not listed: [12]
> 100 µM: all other assays above

CCOP(=O)(OCC)/C(C#N)=C/c1cccn1C
not listed: [5]
> 100 µM: all other assays above

CC1(C)COC(c2cccc(C(=O)c3ccccc3)c2)=N1
32.1 µM: [12]
not listed: [6]
> 100 µM: all other assays above

CCC(=O)NC(NNS(=O)(=O)c1ccc(C)cc1)(C(F)(F)F)C(F)(F)F
> 10 µM: [3]
85.2 µM: [9]
54.3 µM: [8]
not listed: [13]
> 100 µM: all other assays above

CSc1cc(Cl)c(C(=O)Nc2ccccc2)cc1S(=O)(=O)n1cc[nH]c1=O
not listed: [11]
> 100 µM: all other assays above

CCCCCCCCCCCC(=O)OCC(O)CO (stereo not drawn)
not listed: [3] | [5]
> 100 µM: all other assays above

N#Cc1ccc(N=NN2CCCC2)cc1
not listed: [1]
> 100 µM: all other assays above

O=C(O)c1cc(-c2ccc3cc(O)c(O)cc3c2)ccc1O
not listed: [3]
> 12.5 µM: all other assays above

O=[N+]([O-])/C(C(Cl)=C(Cl)Cl)=C(\NCc1ccccc1)Sc1ccccc1
71.7 µM: [14]
57.1 µM: [15]
41 µM: [11]
69.7 µM: [9]
35 µM: [4]
not listed: [12]
> 100 µM: all other assays above

CCOC1OC(CO[Si](C)(C)C(C)(C)C)C(O)CC1n1ccc(=O)[nH]c1=O (stereo not drawn)
88.7 µM: [7]
73.1 µM: [5]
not listed: [15]
> 100 µM: all other assays above
